Laboratory results as given in patent US20180002366A1, “4'-SUBSTITUTED NUCLEOSIDE REVERSE TRANSCRIPTASE INHIBITORS” (MERCK SHARP & DOHME CORP., priority 2014, published 2018).

What was measured:
[1] = tested on: HIV-1 (H9IIIB virus) replication in MT4-GFP cells; experiment: Viking Assay: antiviral potency in a multiple round HIV-1 infection assay; assay type: cell-based; settings: inhibition of reproductive ratio R0 between ~48 h and ~72 h post-infection, read-out: Viking, IC50 (10% NHS)
Experimental: Assessing Antiviral Potency in a Multiple Round HIV-1 Infection Assay.
Cells were then washed and re-suspended in either RPMI 1640 containing 10% or 50% normal human serum at 1.6×10^5 cells/mL (10% or 50% NHS conditions) or in 100% normal human serum at 2×10^5 cells/mL (100% NHS conditions).
The increase in the number of green cells over ˜24 h period gives the reproductive ratio, R0, which is typically 5-15 and has been shown experimentally to be in logarithmic phase (data not shown). Inhibition of R0 is calculated for each well, and IC50s determined by non-linear 4-parameter curve fitting.

[2] = tested on: HIV-1 (H9IIIB virus) replication in MT4-GFP cells; experiment: Antiviral Persistence assay; settings: for Fold shift IC50 72 h/24 h: ratio of IC50 72 h to IC50 24 h
Experimental: HIV-1 replication was monitored using MT4-gag-GFP clone D3 (hereafter designate MT4-GFP), which are MT-4 cells modified to harbor a GFP reporter gene, the expression of which is dependent on the HIV-1 expressed proteins tat and rev. Productive infection of an MT4-GFP cell with HIV-1 results in GFP expression approximately 24 h post-infection. MT4-GFP cells were maintained at 37° C./5% CO2/90% relative humidity in RPMI 1640 supplemented with 10% fetal bovine serum, 100 U/mL penicillin/streptomycin, and 400 μg/mL G418 to maintain the reporter gene. For 72 hour time point persistence assay (72 h plate) and 24 hour time point control assay (24 h plate), MT4-GFP cells were washed and re-suspended in RPMI 1640 containing 10% normal human serum at either 1.6×10^5 or 2.4×10^5 cells/mL (10% NHS). Compound plates were prepared by dispensing compounds dissolved in DMSO into wells of 384 well cell culture plates ([…]) using an ECHO acoustic dispenser. Each compound was tested in a 10 point serial 3-fold dilution (typical final concentrations: 4.2 μM-0.21 nM). Controls included no inhibitor (DMSO only) and a combination of three antiviral agents (efavirenz, indinavir, and an integrase strand transfer inhibitor at final concentrations of 4 μM each). Cells were added (50 μL/well) to compound plates and were incubated at 37° C./5% CO2/90% relative humidity for 24 hours. The cells were washed with 5×40 uL of RPMI 1640 supplemented with 10% NHS and 100 U/mL penicillin/streptomycin. 72 h plate was return back to 37° C. incubator for additional 48 hour incubation. 40 uL of the cells from each well of the 24 h plate or the 72 h plate (after 48 hour incubation post wash) were transferred to a poly-D-lysine coated plate. The cells were then infected with H9IIIB virus at an approximate multiplicity of infection of 0.1 in the same incubation conditions.
Infected cells were quantified at ˜24 h post-infection, by counting the number of green cells in each well using an Acumen eX3 scanner. IC50s for the compounds in Table 4 were determined by non-linear 4-parameter curve fitting.
The antiviral persistence assay is meant to assess for the persistence of antiviral activity upon removal of the nucleoside. […] The publication AIDS Research and Therapy, 2009, 6:5, highlights the value of antiviral persistence.

[3] = target: T1, human ADA type 1 (Homo sapiens, UniProt P00813); experiment: Adenosine Deaminase (ADA) Half-Life; assay type: in vitro ADME; settings: Tris-HCl buffer pH 7.5, 40° C., procedures as for compound 2 to 2A
T1 sequence (P00813 1-363): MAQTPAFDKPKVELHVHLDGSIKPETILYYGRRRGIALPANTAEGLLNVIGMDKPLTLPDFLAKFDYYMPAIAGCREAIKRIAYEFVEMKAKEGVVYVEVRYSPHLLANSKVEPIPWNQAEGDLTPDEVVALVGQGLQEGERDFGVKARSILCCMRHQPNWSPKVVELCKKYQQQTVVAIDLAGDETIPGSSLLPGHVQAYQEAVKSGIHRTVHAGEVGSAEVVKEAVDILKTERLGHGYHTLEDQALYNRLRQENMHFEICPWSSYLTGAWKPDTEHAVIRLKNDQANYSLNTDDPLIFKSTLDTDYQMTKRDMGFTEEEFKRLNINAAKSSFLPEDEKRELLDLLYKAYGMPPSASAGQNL
Experimental: (§1) The data in Table 5 was generated by reacting a substrate compound with human ADA type 1 in the presence of Tris-HCl buffer (pH 7.5) at 40° C. and monitoring by LCMS for consumption of starting material. The time necessary for 50% conversion to the corresponding inosine product is noted as the T1/2 in Table 5. It is known that deamination by adenosine deaminase decreases the therapeutic potential of adenosine-like nucleoside inhibitors especially in vivo (see references below). […] It is possible that compounds that are more resistant to ADA will have better pharmacokinetic properties.
(§2) Tris-HCl buffer (pH 7.5, 5 mL) was injected into a 25-mL round-bottom flask. The mixture was heated to reflux for 30 minutes. Then the mixture was cooled to 30° C. and (2R,3S,5R)-5-(4-amino-5-fluoro-7H-pyrrolo[2,3-d]pyrimidin-7-yl)-2-ethynyl-2-(hydroxymethyl)tetrahydrofuran-3-ol (Example compound 2, 7 mg, 0.024 mmol) was added, followed by the addition of adenosine deaminase (3 mg, ˜33 units). The resulting mixture was stirred at 40° C. and stirred for 4 days. The reaction mixture was concentrated under vacuum and the residue was purified by preparative-HPLC with the following conditions: Column: X-Bridge C18, 19*150 mm, 5 um; mobile phase, water with 10 mmol ammonium bicarbonate and acetonitrile (6% acetonitrile up to 30% in 5 min, hold 95% for 2 min, down to 40% in 2 min); Detector, uv 254&220 nm. The product-containing fractions were collected and lyophilized to give the title compound 2A as a solid. ^1H-NMR: (400 MHz, d6-DMSO, ppm): δ 11.58 (brs, 1H), 7.86 (s, 1H), 7.22 (d, J=1.6 Hz, 1H), 6.44 (t, J=5.8 Hz, 1H), 5.47 (d, J=4.8 Hz, 1H), 5.26-5.22 (m, 1H), 4.39-4.35 (m, 1H), 3.55-3.45 (m, 2H), 3.42 (s, 1H), 2.41-2.24 (m, 2H). ^19F-NMR: (376 MHz, d6-DMSO, ppm): δ −165.50 (s, 1F). LC-MS: (ES, m/z): 294.15 [M+H]^+.
(§3) Using the described procedures, conversion of compounds 4, 8 and 9 to 4A, 8A and 9A, respectively, was not detected (NA=substrate insensitive to adenosine deaminase).

[4] = target: T2, adenosine deaminase (ADA) type 1 (Homo sapiens, UniProt P00813); experiment: Adenosine Deaminase (ADA) Half-Life; assay type: in vitro ADME; settings: human, human adenosine deaminase (ADA) type 1 in Tris-HCl buffer; time for 50% conversion to inosine product; Tris-HCl buffer pH 7.5, 40° C., LCMS
T2 sequence (P00813 1-363): T1 sequence (P00813 1-363)
Experimental: as §1, §2, §3

[5] = tested on: MT4-GFP cells; experiment: CTG Assay: cytotoxicity in CellTiter-Glo Luminescent Cell Viability Assay; assay type: cell-based; settings: 10% normal human serum, 48 h incubation, top concentration 8.4 μM
Experimental: Assessing Cytotoxicity in CellTiter-Glo Luminescent Cell Viability Assay (CTG).
Cells were then washed and resuspended in RPMI 1640 containing 10% normal human serum at a density of 0.8×10^5 cells/mL. […] Controls included DMSO. […] CTG reagent (Promega, G7573) was added to the cell plates after 48 h incubation according to the manufacturer's description. Luminescence signals were recorded on EnVision plate reader (PerkinElmer). LD50s were determined by non-linear 4-parameter curve fitting. The resulting data is shown in Table 3 with the marketed HIV nucleoside reverse transcriptase inhibitor AZT (azidothymidine, zidovudine) included as a control.

[6] = Human immunodeficiency virus 1, 10% normal human serum
[7] = Human immunodeficiency virus 1, 24 h, read-out: IC50 24 h (nM)
[8] = Human immunodeficiency virus 1, read-out: IC50 72 h (nM)

Row | Compound | IC50 [1, 6] | IC50 [2, 7] | IC50 [2, 8] | Fold shift IC50 72 h/24 h [2] | conversion to the corresponding inosine product by adenosine deaminase [3] | half-life at 4.8 mM [4] | IC50 ([1]; 10% normal human serum) | LD50 [5] | IC50 ([2]; read-out: IC50 24 h, 24 h plate: cells incubated with compound 24 hours, washed, then infected, 10% NHS) | IC50 ([2]; read-out: IC50 72 h, 72 h plate: compound 24 hours, washed, additional 48 hour incubation, then infected, 10% NHS)
1 | C#C[C@]1(CO)O[C@@H](n2ccc3c(N)nc(N)nc32)C[C@@H]1O [Example 8, (2R,3S,5R)-5-(2,4-diamino-7H-pyrrolo[2,3-d]pyrimidin-7-yl)-2-ethynyl-2-(hydroxymethyl)tetrahydrofuran-3-ol] | 194 nM | 840 nM | 29000 nM | 34.5 | not detected |  |  |  |  | 
2 | C#C[C@]1(CO)O[C@@H](n2cnc3c(N)ncnc32)C[C@@H]1O [EDA, (2R,3S,5R)-5-(6-amino-9H-purin-9-yl)-2-ethynyl-2-(hydroxymethyl)tetrahydrofuran-3-ol, reference compound] |  |  |  |  |  | < 1 h |  |  |  | 
3 | C#C[C@]1(CO)O[C@@H](c2ccc3c(N)ncnn23)C[C@@H]1O [Example 11, (2R,3S,5R)-5-(4-aminopyrrolo[2,1-f][1,2,4]triazin-7-yl)-2-ethynyl-2-(hydroxymethyl)tetrahydrofuran-3-ol] | 17.2 nM | 12.4 nM | 1950 nM | 157 |  | 3 h |  |  |  | 
4 | C#C[C@]1(CO)O[C@@H](n2ccc3c(N)ncnc32)C[C@@H]1O [Example 1, (2R,3S,5R)-5-(4-amino-7H-pyrrolo[2,3-d]pyrimidin-7-yl)-2-ethynyl-2-(hydroxymethyl)tetrahydrofuran-3-ol] | 1.3 nM | 0.8 nM | 36 nM | 45 |  | 288 h |  |  |  | 
5 | C#C[C@]1(CO)O[C@@H](n2ccc3c(N)nc(F)nc32)C[C@@H]1O [Example 9, (2R,3S,5R)-5-(4-amino-2-fluoro-7H-pyrrolo[2,3-d]pyrimidin-7-yl)-2-ethynyl-2-(hydroxymethyl)tetrahydrofuran-3-ol] | 10.2 nM | 37 nM | 270 nM | 7.3 | not detected |  |  |  |  | 
6 | C#C[C@]1(CO)O[C@@H](n2ccc3c(N)nc(Cl)nc32)C[C@@H]1O [Example 4, (2R,3S,5R)-5-(4-amino-2-chloro-7H-pyrrolo[2,3-d]pyrimidin-7-yl)-2-ethynyl-2-(hydroxymethyl)tetrahydrofuran-3-ol] | 4 nM | 9.6 nM | 360 nM | 37.5 | not detected |  |  |  |  | 
7 | Nc1ncnc2c1ncn2[C@H]1C[C@H](O)[C@@H](CO)O1 [Deoxy- adenosine, deoxyadenosine, reference compound] |  |  |  |  |  | < 0.167 h |  |  |  | 
8 | C#C[C@]1(CO)O[C@@H](c2cnc3c(N)ncnn23)C[C@@H]1O [Example 22, (2R,3S,5R)-5-(4-aminoimidazo[2,1-f][1,2,4]triazin-7-yl)-2-ethynyl-2-(hydroxymethyl)tetrahydrofuran-3-ol] | 38 nM | 38 nM | 350 nM | 9.2 |  | 0.167 h |  |  |  | 
9 | C#C[C@]1(CO)O[C@@H](c2cnn3c(N)ncnc23)C[C@@H]1O [Example 23, (2R,3S,5R)-5-(4-aminopyrazolo[1,5-a][1,3,5]triazin-8-yl)-2-ethynyl-2-(hydroxymethyl)tetrahydrofuran-3-ol] | 64 nM | 64 nM | 700 nM | 10.9 |  | 0.167 h |  |  |  | 
10 | C#C[C@]1(CO)O[C@@H](n2cc(F)c3c(N)ncnc32)C[C@@H]1O [Example 2, (2R,3S,5R)-5-(4-amino-5-fluoro-7H-pyrrolo[2,3-d]pyrimidin-7-yl)-2-ethynyl-2-(hydroxymethyl)tetrahydrofuran-3-ol] | 1.6 nM | 6.6 nM | 193 nM | 29 |  | 16 h |  |  |  | 
11 | (2R,3S,5R)-5-(4-aminopyrrolo[2,1-f][1,2,4]triazin-7-yl)-3-hydroxy-2-(hydroxymethyl)tetrahydrofuran-2-carbonitrile [Example 12] |  |  |  |  |  |  | 735 nM | >8.4 µM | 880 nM | 25000 nM
